One data set deals with non-diseased 3D HSE. The experiment in a line: TEER epidermal barrier function, non-diseased 3D HSE. The data set is classed as cell-based, human. The note with it: 10 nM and 100 nM erlotinib.
Another data set deals with 3D EI HSE. The experiment in a line: Effect of erlotinib on EI 3D HSE (morphological analysis). The data set is classed as cell-based, human. The note with it: 100 nM erlotinib every 72 hours until harvest at day 12; EI constructs. As for the experimental part:
Non-diseased cells and cells from an EI patient were plated for 3D human skim equivalent (HSE)and treated with 100 nM erlotinib from the time of lifting to the air-liquid interface every 72 hours until harvest at day 12. The samples were subjected to morphological analysis. […] (FIGS. 4A-B).

For another data set, the system named is EI 3D HSE. The experiment in a line: TEER epidermal barrier function, EI 3D HSE. The data set is classed as cell-based, human. The note with it: 10 nM and 100 nM erlotinib.
Data set [1] has as its system Hairless Skh-1 mice treated with TPA. The experiment in a line: Mouse model of hyperkeratosis (TPA-induced skin inflammation). The data set is classed as in vivo. The note with it: composition comprising 0.4%, 1.0% or 4.0% erlotinib daily starting on Day 8. As for the experimental part:
Hairless Skh-1 mice were treated with 12-O-Tetradecanoylphorbol-13-acetate (TPA) daily for 7 days than every other day for the next 7 days to induce skin inflammation. The mice were then treated with vehicle or a composition comprising 0.4%, 1.0% or 4.0% erlotinib daily starting on Day 8. The mice were assessed for degrees of inflammation, transepidermal water loss and expression of p^Y1068EGFR, EGFR, KRT10 and KRT16.

The mark [2] stands for this setting: harvest day 10, listed as Erlotinib.

Consider `C#Cc1cccc(Nc2ncnc3cc(OCCOC)c(OCCOC)cc23)c1` [erlotinib], for which the “epidermal barrier function (TEER)” value with non-diseased 3D HSE (harvest day 10) is reported as “does not impair epidermal barrier function”; in the data set with non-diseased 3D HSE (setting [2]) it was “did not produced a significant change in TEER values”; in the data set on EI 3D HSE (harvest day 10) it was “does not impair epidermal barrier function”; with EI 3D HSE (setting [2]), “did not produced a significant change in TEER values”. Besides, the “morphologic change in the upper epidermis” value in the data set with 3D EI HSE is “marked morphologic change”. Also, the skin inflammation result in data set [1] (TPA-treated Skh-1 mice) was “dose dependent reduction of skin inflammation”. Moreover, the transepithelial water loss result in data set [1] (TPA-treated Skh-1 mice) is on record as “significantly decreasing transepithelial water loss”. In data set [1] (Western blot), the “expression of p^Y1068EGFR, EGFR, KRT10 and KRT16” value is reported as “dose dependent change”.

The values are drawn from US20230113775A1, “ANHYDROUS COMPOSITIONS OF EGFR INHIBITORS AND METHODS OF USE” (priority 2021, published 2023).
